Source: patent publication US11548870B2, “Compounds useful as inhibitors of helios protein” (Bristol-Myers Squibb Company, priority 2019, dated 2023)
“And” between values parts separate entries of the source, which are not always exact repeats. Identical values can stand only once.

How the values were obtained:
Helios = target: T1, Helios (Homo sapiens, UniProt Q96SW2+Q9UKS7); experiment: Helios Cellular Degradation Assay (flow cytometry, Helios-PE antibody staining, 72 h); type: cell-based; conditions: Jurkat cells, 72 h incubation, flow cytometry; for Dmax: Jurkat, read-out: Helios Dmax
T1 construct: fluorescently labelled antibodies against Helios and Ikaros; endogenous in cells; host or cells: Jurkat cells
T1 sequence (Q9UKS7 whole entry): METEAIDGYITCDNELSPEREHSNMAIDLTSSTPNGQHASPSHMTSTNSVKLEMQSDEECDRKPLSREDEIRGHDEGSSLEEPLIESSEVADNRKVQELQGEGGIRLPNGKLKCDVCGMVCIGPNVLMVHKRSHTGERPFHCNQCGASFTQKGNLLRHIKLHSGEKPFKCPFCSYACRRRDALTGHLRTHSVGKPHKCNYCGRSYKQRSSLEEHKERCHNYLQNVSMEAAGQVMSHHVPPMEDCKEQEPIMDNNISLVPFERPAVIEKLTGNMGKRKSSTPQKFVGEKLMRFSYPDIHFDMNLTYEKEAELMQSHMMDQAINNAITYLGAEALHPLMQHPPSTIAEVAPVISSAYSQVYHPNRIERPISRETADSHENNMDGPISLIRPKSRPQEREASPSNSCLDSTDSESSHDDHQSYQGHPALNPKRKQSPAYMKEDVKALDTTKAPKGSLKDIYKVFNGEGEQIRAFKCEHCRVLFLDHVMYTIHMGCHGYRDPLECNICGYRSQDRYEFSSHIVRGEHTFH
T1 sequence (Q96SW2 whole entry): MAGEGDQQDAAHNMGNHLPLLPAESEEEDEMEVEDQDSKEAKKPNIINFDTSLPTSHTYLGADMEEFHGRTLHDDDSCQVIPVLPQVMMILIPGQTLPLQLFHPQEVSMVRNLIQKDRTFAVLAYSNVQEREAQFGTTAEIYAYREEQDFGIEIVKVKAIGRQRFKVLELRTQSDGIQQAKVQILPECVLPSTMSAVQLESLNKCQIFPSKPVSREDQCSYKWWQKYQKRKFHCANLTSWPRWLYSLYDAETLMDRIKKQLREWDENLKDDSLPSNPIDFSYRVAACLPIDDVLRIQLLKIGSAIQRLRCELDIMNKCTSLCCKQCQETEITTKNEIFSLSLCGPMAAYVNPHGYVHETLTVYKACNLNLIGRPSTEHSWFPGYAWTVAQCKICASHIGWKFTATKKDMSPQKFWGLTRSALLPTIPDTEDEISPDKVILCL
T1 sequence (Q16531 whole entry partner): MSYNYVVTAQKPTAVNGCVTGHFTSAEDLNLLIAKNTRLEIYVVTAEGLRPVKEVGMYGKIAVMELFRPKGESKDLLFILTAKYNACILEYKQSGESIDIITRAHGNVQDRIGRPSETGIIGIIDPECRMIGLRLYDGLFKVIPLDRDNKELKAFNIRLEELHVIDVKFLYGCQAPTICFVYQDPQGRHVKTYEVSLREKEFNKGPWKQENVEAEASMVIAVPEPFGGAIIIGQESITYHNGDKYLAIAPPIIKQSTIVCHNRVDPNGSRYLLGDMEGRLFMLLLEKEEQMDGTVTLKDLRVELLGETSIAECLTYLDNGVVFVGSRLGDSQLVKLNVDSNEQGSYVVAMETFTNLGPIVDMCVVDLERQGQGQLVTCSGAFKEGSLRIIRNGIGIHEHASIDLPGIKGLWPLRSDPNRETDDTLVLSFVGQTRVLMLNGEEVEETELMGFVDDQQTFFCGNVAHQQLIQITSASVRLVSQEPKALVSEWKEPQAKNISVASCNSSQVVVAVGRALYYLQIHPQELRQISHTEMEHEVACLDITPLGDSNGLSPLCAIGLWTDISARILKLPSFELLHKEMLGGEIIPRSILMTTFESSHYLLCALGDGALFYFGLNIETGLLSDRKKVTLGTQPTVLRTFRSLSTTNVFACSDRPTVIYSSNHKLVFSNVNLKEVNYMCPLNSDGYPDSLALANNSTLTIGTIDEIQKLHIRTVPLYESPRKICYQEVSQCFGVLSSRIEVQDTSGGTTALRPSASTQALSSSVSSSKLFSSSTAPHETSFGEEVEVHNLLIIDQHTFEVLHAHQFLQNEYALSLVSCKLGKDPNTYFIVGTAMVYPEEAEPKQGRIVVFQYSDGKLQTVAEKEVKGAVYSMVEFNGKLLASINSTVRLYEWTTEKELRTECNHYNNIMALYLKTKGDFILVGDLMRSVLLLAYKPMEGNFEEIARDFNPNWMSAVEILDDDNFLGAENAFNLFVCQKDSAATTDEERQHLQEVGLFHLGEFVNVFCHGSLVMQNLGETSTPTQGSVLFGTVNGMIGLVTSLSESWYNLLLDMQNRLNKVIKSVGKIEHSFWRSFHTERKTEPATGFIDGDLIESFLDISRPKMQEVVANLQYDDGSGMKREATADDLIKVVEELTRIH
Protocol: (§1) Helios Cellular Degradation Assay
(§2) Jurkat cells were plated at 80,000 cells/well in 40 μL RPMI+10% FBS in a 384 well cell culture plate prior to using acoustic dispensing technology for adding compound of interest. Cell cultures were incubated for 72 h at 37° C. and 5% CO2. In order to facilitate analysis, cell cultures were spun down at 200 rpm for 5 min and the supernatant was discarded. After shaking the plate to dislodge the cell pellet, cells were resuspended in 50 μL of Fixation Buffer (eBioScience FoxP3 buffer set 0000) for 60 min at room temperature. After centrifuging and discarding the supernatant, cells were permeabilized with 50 μL of Permeabilization buffer (eBioScience FoxP3 buffer set 00-5523-00) for 10 min at room temperature. Following permeabilization, cells were spun down and the supernatant was replaced with 20 μL fluorescently labelled antibodies against Helios and Ikaros or corresponding Isotype controls in 1× Permeabilization buffer (Ikaros-Alexa488 [Biolegend, Cat #368408, 1:50], Helios-PE [CST, Cat #29360, 1:50]) and staining reactions were incubated for 1 h at room temperature; protected from light. Subsequently, 30 μL of 1× Permeabilization buffer was added prior to centrifuging the cells and discarding the supernatant. Stained cells were resuspended in 25 μL of flow cytometry staining buffer (PBS+0.2% BSA) and analyzed using an Intellicyt Ique Plus flow cytometer.
as §2, with “00-5523-00)” for “0000)”

Ikaros = target: T2, Ikaros (Homo sapiens, UniProt Q13422); experiment: Helios Cellular Degradation Assay, Ikaros readout (flow cytometry, Ikaros-Alexa488 antibody staining, 72 h); type: cell-based; conditions: Jurkat cells, 72 h incubation, flow cytometry; for Dmax: Jurkat, read-out: Ikaros Dmax
T2 construct: fluorescently labelled antibodies against Helios and Ikaros; endogenous in cells; host or cells: Jurkat cells
T2 sequence (Q96SW2 whole entry partner): as the sequence (Q96SW2 whole entry) above
T2 sequence (Q16531 whole entry partner): as the sequence (Q16531 whole entry partner) above
T2 sequence (Q13422 whole entry): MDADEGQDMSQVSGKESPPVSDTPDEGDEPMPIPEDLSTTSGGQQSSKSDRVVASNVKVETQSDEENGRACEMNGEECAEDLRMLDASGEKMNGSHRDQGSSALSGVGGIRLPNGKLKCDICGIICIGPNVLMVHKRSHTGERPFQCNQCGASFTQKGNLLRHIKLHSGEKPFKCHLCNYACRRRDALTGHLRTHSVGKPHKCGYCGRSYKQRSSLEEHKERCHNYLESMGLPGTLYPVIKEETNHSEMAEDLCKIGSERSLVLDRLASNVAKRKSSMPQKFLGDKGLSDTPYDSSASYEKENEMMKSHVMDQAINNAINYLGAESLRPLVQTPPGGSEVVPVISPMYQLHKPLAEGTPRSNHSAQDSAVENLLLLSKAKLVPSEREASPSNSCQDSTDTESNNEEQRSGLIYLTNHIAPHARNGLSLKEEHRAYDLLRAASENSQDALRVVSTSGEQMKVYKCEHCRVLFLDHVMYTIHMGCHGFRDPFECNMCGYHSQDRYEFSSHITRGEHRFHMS
Protocol: as §1, §2
as §2, with “00-5523-00)” for “0000)”

| Molecule | DC50 (Helios) [nM] | Helios Dmax (Helios) | DC50 (Ikaros) [nM] | Ikaros Dmax (Ikaros) | Dmax (Helios) [%] | Dmax (Ikaros) [%] |
| --- | --- | --- | --- | --- | --- | --- |
| 3-(1-oxo-5-(4-((4-(pyridin-2-yl)piperidin-1-yl)methyl)pyridin-2-yl)isoindolin-2-yl)piperidine-2,6-dione [Example 15] | > 10000 | 5% | > 10000 | 8% | – | – |
| 3-(1-oxo-5-(4-((4-(pyrimidin-2-yl) piperidin-1-yl)methyl)pyridin-2-yl)isoindolin-2-yl)piperidine-2,6-dione [Example 18] | > 10000 | 21% | > 10000 | 19% | – | – |
| 3-(5-(4-(((cyclobutylmethyl)(methyl)amino)methyl)pyridin-2-yl)-1-oxoisoindolin-2-yl)piperidine-2,6-dione [Example 178] | 131 | 82% | > 10000 | 15% | – | – |
| O=C1CCC(N2Cc3cc(-c4cc(CN5CCC5c5ccccc5)ccn4)ccc3C2=O)C(=O)N1 (single isomer, unassigned) [Example 204, 3-(1-oxo-5-(4-((2-phenylazetidin-1-yl)methyl)pyridin-2-yl)isoindolin-2-yl)piperidine-2,6-dione] | > 10000 | 2.42% and 2.4% | > 10000 | – | – | – |
| O=C1CCC(N2Cc3cc(-c4cc(CN5CCC5c5ccccc5)ccn4)ccc3C2=O)C(=O)N1 (single isomer, unassigned) [Example 205, 3-(1-oxo-5-(4-((2-phenylazetidin-1-yl)methyl)pyridin-2-yl)isoindolin-2-yl)piperidine-2,6-dione] | > 10000 | – | > 10000 | 8.15% and 6% | – | – |
| CN(C)Cc1ccnc(-c2ccc3c(c2)CN(C2CCC(=O)NC2=O)C3=O)c1 (centres unmarked) [Example 1, 3-(5-{4-[(Dimethylamino)methyl]pyridin-2-yl}-1-oxo-2,3-dihydro-1H-isoindol-2-yl) piperidine-2,6-dione] | 25 | – | > 10000 | – | 84 | 9 |
| O=C1CCC(N2Cc3cc(-c4cc(CNCc5ccccc5)ccn4)ccc3C2=O)C(=O)N1 (centres unmarked) [Example 2, 3-(5-(4-((benzylamino)methyl)pyridin-2-yl)-1-oxoisoindolin-2-yl)piperidine-2,6-dione] | 11 | – | > 10000 | – | 92 | 16 |
| CCCN(C)Cc1ccnc(-c2ccc3c(c2)CN(C2CCC(=O)NC2=O)C3=O)c1 (centres unmarked) [Example 3, 3-(5-(4-((methyl(propyl)amino)methyl)pyridin-2-yl)-1-oxoisoindolin-2-yl)piperidine-2,6-dione] | 38 | – | > 10000 | – | 87 | 3 |
| CCN(C)Cc1ccnc(-c2ccc3c(c2)CN(C2CCC(=O)NC2=O)C3=O)c1 (centres unmarked) [Example 4, 3-(5-(4-((ethyl(methyl)amino)methyl)pyridin-2-yl)-1-oxoisoindolin-2-yl)piperidine-2,6-dione] | 96 | – | > 10000 | – | 84 | 8 |
| CCN(C)Cc1ccnc(-c2ccc3c(c2)CN(C2CCC(=O)NC2=O)C3=O)c1 (centres unmarked) [Example 5] | 44 | 90% | > 10000 | 5% | – | – |
| CCN(C)Cc1ccnc(-c2ccc3c(c2)CN(C2CCC(=O)NC2=O)C3=O)c1 (centres unmarked) [Example 6] | 28 | 86% | > 10000 | 6% | – | – |
| COCCN(C)Cc1ccnc(-c2ccc3c(c2)CN(C2CCC(=O)NC2=O)C3=O)c1 (centres unmarked) [Example 7, 3-(5-(4-(((2-methoxyethyl)(methyl)amino)methyl)pyridin-2-yl)-1-oxoisoindolin-2-yl)piperidine-2,6-dione] | 138 | – | > 10000 | – | 85 | 20 |
| O=C1CCC(N2Cc3cc(-c4cc(CN5CCCC5)ccn4)ccc3C2=O)C(=O)N1 (centres unmarked) [Example 8, 3-(1-oxo-5-(4-(pyrrolidin-1-ylmethyl)pyridin-2-yl)isoindolin-2-yl)piperidine-2,6-dione] | 26 | – | > 10000 | – | 85 | 18 |
